Assay results published in ChEMBL document CHEMBL1201862, “PubChem BioAssay data set” (2004).
Values belong to the molecule of their own block, whether it stands above or below them. Active and inactive are the calls of the source.

Assays:
[1] = molecular target: Glyceraldehyde-3-phosphate dehydrogenase (Homo sapiens, UniProt P04406)
[2] = molecular target: T1, Alkaline phosphatase, tissue-nonspecific isozyme (Homo sapiens, UniProt P05186); assay: potency against alkaline phosphatase TNAP – biochemical, luminescent, dose response, SAR follow-up (AID 1056)
T1 sequence (P05186 whole entry): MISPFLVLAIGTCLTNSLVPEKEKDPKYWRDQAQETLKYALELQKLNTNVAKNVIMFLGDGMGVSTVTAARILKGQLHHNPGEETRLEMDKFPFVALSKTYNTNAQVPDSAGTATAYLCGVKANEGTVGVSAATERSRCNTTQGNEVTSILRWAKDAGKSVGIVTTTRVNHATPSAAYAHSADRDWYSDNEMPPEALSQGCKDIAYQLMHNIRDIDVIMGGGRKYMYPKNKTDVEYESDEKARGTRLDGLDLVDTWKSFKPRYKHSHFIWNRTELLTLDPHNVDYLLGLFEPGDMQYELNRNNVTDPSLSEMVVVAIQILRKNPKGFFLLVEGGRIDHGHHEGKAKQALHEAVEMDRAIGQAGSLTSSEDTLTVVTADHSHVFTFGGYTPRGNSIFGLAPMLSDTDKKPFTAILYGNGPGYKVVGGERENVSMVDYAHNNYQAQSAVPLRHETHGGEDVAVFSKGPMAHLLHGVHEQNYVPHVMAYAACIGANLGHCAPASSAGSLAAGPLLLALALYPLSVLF

Troponin, cardiac muscle = Troponin, cardiac muscle (Homo sapiens, UniProt P19429+P45379+P63316); assay: Fluorescence-based biochemical high throughput dose response assay for activators of the calcium sensitivity of cardiac Regulated Thin Filaments (RTF). [Related pubchem assays (depositor defined):AID493008, AID493018, AID504382, AID504383]; format: protein-complex assay
Coagulation factor XII = molecular target: T2, Coagulation factor XII (Homo sapiens, UniProt P00748); format: functional;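 also: activated factor XIIa alpha cleaving a fluorogenic AMC peptide substrate; inhibitor potency from loss of enzyme activity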
T2 sequence (P00748 whole entry): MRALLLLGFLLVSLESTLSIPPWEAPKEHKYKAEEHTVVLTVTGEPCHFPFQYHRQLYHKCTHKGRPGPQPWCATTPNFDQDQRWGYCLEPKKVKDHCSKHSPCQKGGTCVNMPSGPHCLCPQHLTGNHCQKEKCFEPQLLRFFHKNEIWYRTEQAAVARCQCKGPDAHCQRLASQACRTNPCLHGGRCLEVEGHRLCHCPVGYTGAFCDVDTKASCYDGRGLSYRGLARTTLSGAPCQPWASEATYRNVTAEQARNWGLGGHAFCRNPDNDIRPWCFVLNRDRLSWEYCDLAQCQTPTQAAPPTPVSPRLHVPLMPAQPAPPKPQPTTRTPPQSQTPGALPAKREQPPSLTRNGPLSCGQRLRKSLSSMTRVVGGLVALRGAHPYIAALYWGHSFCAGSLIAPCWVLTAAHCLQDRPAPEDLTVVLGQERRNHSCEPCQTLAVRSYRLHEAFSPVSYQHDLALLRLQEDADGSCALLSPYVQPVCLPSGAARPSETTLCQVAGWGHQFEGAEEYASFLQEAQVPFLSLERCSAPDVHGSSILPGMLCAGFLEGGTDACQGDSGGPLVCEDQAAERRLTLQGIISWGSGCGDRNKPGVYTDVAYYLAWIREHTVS

[3] = molecular target: T3, Type-1 angiotensin II receptor (Homo sapiens, UniProt P30556); assay: agonist activity at AGTR1 – cell-based, uHTS hits, selectivity assay for APJ receptor agonist project, dose response (AID 488865); format: functional;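 also: beta-arrestin recruitment to AT1 measured by enzyme fragment complementation luminescence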
T3 sequence (P30556 whole entry): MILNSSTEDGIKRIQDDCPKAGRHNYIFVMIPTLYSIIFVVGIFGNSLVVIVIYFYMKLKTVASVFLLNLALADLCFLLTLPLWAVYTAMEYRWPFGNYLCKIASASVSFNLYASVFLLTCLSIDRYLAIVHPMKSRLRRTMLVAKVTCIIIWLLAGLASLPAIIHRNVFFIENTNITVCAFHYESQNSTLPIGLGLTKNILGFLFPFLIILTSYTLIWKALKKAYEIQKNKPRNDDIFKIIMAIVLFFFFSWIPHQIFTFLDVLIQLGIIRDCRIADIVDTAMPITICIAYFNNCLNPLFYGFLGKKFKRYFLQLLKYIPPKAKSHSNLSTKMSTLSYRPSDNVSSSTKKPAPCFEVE

[4] = molecular target: SWI/SNF-related matrix-associated actin-dependent regulator of chromatin subfamily A member 2 (Homo sapiens, UniProt P51531); assay: Luminescence-based cell-based high throughput dose response assay to identify activators of the function of SWI/SNF related, matrix associated, actin dependent regulator of chromatin, subfamily a, member 2 (SMARCA2, BRM).; format: functional
[5] = Counterscreen for activators of the function of SWI/SNF related, matrix associated, actin dependent regulator of chromatin, subfamily a, member 2 (SMARCA2, BRM): Luminescence-based cell-based high throughput dose response assay to identify non-selective compounds using the VP16 reporter assay.; format: functional
[6] = molecular target: Peroxisome proliferator-activated receptor gamma/Nuclear receptor coactivator 1 (Homo sapiens, UniProt P37231); assay: (§1) TR-FRET dose response biochemical High Throughput Screening assay for agonists of the steroid receptor coactivator 1 (SRC-1) recruitment by the peroxisome proliferator-activated receptor gamma (PPAR gamma): non-selective agonists. [Related pubchem assays (depositor defined):AID1300, AID1808, AID504735, AID631]; format: protein assay
[7] = molecular target: Peroxisome proliferator-activated receptor gamma/Nuclear receptor coactivator 3 (Homo sapiens, UniProt P37231); assay: as §1, with “3 (SRC-3)” for “1 (SRC-1)”, “assays: 1301 (Confirmation screen.), 1048 (Primary screen.)]” for “assays (depositor defined):AID1300, AID1808, AID504735, AID631]”; format: functional
[8] = molecular target: Peroxisome proliferator-activated receptor gamma/Nuclear receptor coactivator 2 (Homo sapiens, UniProt P37231); assay: TR-FRET dose response biochemical High Throughput Screening assay for agonists of the steroid receptor coactivator 2 (SRC-2) recruitment by the peroxisome proliferator-activated receptor gamma (PPAR gamma): non-selective agonists. [Related pubchem assays: 1297, 1032 ]; format: functional
[9] = molecular target: Peroxisome proliferator-activated receptor gamma/Nuclear receptor corepressor 2 (Homo sapiens, UniProt P37231+Q9Y618); assay: Counterscreen for NR2E3 inverse agonists: TR-FRET-based biochemical high throughput dose response assay to identify inverse agonists of the interaction between peroxisome proliferator-activated receptor gamma (PPARg) and nuclear receptor co-repressor 2 (NCOR2).; format: functional
[10] = molecular target: Photoreceptor-specific nuclear receptor (Homo sapiens, UniProt Q9Y5X4); assay: ligands suppressing NR2E3 nuclear receptor activity – biochemical, TR-FRET, dose response (AID 463256); format: functional
INS1 = assay: INS-1E survival protection against cytokine death – cell-based, luminescence, retest, dose response (AID 449756); format: functional; details: Rattus norvegicus;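 also: cell death triggered by IL-1 beta plus TNF-alpha plus IFN-gamma mixture; protective hits raise ATP signal compared with cytokine alone wells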
[11] = molecular target: T4, COUP transcription factor 2 (Homo sapiens, UniProt P24468); assay: Luminescence-based cell-based high throughput dose response assay to identify inhibitors of COUP-TFII (NR2F2).; format: functional;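 also: HEK293 cells transiently cotransfected with COUP-TFII expression vector and reporter; luciferase reporter luminescence driven by COUP-TFII from the pX2-168 reporter plasmid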
T4 sequence (P24468 whole entry): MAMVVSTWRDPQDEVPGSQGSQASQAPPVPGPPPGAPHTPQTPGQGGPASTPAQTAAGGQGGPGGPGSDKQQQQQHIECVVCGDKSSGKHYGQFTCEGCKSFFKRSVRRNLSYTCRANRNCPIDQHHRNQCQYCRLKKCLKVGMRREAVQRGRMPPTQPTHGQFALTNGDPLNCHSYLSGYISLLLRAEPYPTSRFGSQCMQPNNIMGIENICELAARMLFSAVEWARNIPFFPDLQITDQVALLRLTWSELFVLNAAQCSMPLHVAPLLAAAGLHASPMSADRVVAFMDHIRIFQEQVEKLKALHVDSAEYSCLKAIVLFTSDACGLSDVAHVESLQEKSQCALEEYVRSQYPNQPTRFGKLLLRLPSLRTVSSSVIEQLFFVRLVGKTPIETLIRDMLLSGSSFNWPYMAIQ

[12] = molecular target: T5, E3 ubiquitin-protein ligase XIAP (Homo sapiens, UniProt P98170); assay: Counter Screen using XIAP-Bir3 for Chemical Antagonists of Bir1/2 domains of IAP-family anti-apoptotic proteins. [Related pubchem assays (depositor defined):AID1018, AID1449, AID1514, AID1638, AID1749, AID1750, AID488957, AID488963]
[13] = molecular target: T5, E3 ubiquitin-protein ligase XIAP; assay: small molecules displacing peptide from XIAP – biochemical, IAP family, fluorescence polarization (AID 1018); format: functional
[14] = molecular target: T6, Corticotropin-releasing factor receptor 2/Corticotropin-releasing factor-binding protein (Homo sapiens, UniProt P24387+Q13324); assay: Dose Response confirmation of uHTS hits for small molecule antagonists of the CRF-binding protein and CRF-R2 receptor complex.; format: functional; details: read-out: IC50_Mean
T6 sequence (Q13324 whole entry): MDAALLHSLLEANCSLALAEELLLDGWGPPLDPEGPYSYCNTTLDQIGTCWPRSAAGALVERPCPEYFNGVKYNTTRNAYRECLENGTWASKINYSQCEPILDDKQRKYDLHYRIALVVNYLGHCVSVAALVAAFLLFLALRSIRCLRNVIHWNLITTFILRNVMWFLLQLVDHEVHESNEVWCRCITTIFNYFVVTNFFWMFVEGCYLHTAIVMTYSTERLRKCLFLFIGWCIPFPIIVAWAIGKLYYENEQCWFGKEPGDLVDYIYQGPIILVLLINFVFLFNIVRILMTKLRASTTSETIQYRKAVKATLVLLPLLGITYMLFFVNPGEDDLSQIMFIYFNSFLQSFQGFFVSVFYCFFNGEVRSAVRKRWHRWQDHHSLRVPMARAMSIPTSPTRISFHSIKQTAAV
T6 sequence (P24387 whole entry): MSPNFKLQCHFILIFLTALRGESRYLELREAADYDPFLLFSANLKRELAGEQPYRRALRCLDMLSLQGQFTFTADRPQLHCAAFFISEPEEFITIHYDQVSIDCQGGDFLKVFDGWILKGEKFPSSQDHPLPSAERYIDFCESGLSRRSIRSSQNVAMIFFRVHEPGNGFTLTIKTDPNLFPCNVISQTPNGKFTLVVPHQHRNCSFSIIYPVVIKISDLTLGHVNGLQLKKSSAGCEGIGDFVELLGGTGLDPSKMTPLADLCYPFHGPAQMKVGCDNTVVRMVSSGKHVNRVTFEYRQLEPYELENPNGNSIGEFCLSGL

[15] = molecular target: T6, Corticotropin-releasing factor receptor 2/Corticotropin-releasing factor-binding protein; assay: activators of CRF receptor 2 with binding protein – uHTS hits, confirmation (AID 602473); format: functional; details: read-out: EC50_Mean
[16] = molecular target: T7, Polyadenylate-binding protein 1 (Homo sapiens, UniProt P11940); assay: MLLE binding blockers, Cy5 peptide tracer – biochemical, fluorescence polarization, Cy5-PAM2 peptide, secondary, miRNA deadenylation inhibitor project, dose response (AID 602260); format: functional; details: read-out: IC50_Mean
[17] = molecular target: T7, Polyadenylate-binding protein 1; assay: MLLE domain peptide-binding blockers, IC50 – biochemical, fluorescence polarization, FITC-PAM2 peptide, dose response (AID 602259); format: functional; details: read-out: IC50_Mean
SUMO-activating enzyme = SUMO-activating enzyme (Homo sapiens, UniProt Q9UBT2); assay: blockers of UBC9-mediated SUMO conjugation – biochemical, AlphaScreen, SUMOylation inhibitor project, confirmation (AID 2018); format: functional

T5 sequence (P98170 whole entry): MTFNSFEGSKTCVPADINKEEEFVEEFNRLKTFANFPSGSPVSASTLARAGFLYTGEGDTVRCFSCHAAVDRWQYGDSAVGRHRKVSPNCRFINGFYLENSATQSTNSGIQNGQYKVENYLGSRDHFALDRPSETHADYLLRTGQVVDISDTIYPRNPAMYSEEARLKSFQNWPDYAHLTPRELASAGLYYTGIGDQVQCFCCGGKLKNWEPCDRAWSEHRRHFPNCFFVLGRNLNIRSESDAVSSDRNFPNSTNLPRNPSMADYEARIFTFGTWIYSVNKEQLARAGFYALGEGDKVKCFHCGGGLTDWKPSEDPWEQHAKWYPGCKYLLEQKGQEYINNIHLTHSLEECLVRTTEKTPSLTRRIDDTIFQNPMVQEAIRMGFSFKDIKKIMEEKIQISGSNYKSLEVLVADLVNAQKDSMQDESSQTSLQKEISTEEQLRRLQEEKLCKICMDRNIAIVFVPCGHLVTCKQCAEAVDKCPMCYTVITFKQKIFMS
T7 sequence (P11940 whole entry, the tested form may be a part): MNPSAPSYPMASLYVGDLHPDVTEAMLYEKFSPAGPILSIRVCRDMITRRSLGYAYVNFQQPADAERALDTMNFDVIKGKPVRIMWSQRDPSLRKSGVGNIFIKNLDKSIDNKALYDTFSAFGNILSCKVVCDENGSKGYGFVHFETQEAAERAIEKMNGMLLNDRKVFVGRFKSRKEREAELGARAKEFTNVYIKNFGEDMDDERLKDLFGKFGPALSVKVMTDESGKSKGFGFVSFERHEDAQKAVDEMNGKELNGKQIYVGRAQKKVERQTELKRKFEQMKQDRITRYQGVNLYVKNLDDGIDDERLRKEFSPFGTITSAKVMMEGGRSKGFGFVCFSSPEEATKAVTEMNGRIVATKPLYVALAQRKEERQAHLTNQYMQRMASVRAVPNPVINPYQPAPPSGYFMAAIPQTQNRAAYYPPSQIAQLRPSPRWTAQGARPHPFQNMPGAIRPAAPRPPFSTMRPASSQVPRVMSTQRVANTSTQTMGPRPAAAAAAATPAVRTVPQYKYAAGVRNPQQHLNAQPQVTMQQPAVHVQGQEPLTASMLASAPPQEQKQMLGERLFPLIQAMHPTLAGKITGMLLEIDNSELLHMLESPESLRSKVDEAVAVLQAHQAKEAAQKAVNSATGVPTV
Peroxisome proliferator-activated receptor gamma/Nuclear receptor coactivator 3, sequence (P37231 whole entry): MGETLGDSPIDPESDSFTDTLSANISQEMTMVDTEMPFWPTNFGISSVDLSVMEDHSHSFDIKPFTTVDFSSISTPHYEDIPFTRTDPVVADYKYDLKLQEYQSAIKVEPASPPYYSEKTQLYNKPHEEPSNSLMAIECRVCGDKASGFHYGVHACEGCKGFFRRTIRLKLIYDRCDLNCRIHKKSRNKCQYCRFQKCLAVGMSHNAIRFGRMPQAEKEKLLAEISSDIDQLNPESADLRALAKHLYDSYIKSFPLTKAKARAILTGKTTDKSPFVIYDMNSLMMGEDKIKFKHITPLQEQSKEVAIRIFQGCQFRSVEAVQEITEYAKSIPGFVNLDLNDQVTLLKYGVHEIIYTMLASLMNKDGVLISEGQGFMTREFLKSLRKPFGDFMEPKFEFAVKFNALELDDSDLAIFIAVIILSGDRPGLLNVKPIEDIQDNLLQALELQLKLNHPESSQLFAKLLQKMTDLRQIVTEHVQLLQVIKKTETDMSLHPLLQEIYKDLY
Peroxisome proliferator-activated receptor gamma/Nuclear receptor coactivator 3, sequence (Q9Y6Q9 whole entry, further chain): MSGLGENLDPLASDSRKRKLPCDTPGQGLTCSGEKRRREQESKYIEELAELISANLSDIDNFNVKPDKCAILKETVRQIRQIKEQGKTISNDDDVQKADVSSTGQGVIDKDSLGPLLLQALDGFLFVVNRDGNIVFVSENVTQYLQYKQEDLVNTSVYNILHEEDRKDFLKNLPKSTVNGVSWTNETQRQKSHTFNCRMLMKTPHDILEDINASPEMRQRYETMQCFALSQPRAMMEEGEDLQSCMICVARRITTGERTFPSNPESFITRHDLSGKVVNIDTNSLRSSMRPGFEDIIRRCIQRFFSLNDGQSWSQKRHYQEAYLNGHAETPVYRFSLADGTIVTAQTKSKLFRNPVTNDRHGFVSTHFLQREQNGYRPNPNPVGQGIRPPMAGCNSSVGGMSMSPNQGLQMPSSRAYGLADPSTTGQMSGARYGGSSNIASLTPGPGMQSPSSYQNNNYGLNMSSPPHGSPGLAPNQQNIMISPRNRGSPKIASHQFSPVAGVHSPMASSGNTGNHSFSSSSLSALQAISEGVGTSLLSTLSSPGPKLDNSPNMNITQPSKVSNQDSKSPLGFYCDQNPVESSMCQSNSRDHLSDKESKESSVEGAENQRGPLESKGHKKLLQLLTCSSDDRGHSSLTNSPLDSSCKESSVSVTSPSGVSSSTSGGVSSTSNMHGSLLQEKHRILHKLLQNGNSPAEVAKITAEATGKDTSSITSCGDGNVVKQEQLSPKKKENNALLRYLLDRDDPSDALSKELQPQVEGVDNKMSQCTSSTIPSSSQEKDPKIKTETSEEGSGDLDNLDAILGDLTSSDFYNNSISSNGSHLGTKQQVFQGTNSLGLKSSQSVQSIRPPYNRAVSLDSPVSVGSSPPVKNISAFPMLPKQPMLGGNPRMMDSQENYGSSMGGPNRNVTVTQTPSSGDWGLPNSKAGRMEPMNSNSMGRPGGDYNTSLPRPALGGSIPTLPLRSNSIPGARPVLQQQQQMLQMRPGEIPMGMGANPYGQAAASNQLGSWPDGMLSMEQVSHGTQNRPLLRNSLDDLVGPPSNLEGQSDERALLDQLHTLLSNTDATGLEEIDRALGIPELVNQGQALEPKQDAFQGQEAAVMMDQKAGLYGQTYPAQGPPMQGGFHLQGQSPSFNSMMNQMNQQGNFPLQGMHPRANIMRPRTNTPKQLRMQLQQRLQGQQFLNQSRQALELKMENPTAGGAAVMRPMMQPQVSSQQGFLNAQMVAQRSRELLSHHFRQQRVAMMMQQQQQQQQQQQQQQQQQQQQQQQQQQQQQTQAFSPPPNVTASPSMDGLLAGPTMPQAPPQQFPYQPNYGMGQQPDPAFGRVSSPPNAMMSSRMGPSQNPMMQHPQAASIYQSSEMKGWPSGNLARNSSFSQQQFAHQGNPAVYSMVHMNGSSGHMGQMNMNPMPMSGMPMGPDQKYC
Peroxisome proliferator-activated receptor gamma/Nuclear receptor coactivator 1, sequence (P37231 whole entry): as the sequence (P37231 whole entry) above
Peroxisome proliferator-activated receptor gamma/Nuclear receptor coactivator 1, sequence (Q15788 whole entry, further chain): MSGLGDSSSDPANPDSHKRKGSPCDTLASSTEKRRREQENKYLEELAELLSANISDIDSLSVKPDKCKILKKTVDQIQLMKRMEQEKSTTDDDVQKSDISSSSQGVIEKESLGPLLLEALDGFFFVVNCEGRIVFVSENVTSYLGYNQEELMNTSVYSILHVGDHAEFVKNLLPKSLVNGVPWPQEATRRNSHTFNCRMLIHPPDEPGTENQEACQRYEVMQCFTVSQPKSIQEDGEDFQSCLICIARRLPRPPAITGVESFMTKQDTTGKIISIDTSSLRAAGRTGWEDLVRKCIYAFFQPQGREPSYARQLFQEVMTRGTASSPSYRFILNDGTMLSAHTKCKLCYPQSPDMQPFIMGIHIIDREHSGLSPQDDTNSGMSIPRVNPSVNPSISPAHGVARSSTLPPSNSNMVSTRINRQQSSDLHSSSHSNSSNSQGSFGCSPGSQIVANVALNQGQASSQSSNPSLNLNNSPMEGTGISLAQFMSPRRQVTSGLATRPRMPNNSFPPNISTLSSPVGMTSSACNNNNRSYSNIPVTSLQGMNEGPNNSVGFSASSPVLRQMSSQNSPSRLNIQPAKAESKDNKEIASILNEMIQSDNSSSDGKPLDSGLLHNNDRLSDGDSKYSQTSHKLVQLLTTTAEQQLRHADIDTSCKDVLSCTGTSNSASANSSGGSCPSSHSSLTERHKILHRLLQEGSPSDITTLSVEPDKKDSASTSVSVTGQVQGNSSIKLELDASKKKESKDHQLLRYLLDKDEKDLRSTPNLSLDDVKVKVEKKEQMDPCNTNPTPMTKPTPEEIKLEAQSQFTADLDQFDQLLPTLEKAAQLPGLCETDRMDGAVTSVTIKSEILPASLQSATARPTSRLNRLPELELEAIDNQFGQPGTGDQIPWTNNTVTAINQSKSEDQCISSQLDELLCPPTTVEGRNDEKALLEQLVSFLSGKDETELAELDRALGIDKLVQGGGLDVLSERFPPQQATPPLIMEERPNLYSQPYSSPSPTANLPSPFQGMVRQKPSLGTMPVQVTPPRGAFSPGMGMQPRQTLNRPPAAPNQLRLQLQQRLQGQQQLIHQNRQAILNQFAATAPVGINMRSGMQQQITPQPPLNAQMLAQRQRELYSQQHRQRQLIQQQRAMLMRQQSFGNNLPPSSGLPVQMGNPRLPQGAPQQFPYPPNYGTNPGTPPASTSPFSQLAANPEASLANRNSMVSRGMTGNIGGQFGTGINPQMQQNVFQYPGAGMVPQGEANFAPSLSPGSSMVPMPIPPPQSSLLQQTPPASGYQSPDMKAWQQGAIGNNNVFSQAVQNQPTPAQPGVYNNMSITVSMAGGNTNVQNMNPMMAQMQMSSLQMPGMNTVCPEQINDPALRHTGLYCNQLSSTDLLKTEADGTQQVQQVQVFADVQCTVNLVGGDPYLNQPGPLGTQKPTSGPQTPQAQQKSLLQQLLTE

Structure (SMILES): COc1ccc(S(=O)(=O)Nc2ccc3ccccc3c2)c(OC)c1
IC50 [1]: > 10 µM (inconclusive)
IC50 [2]: > 10 µM (inactive)

Structure (SMILES): O=C(Nc1ccc(C(=O)N2CCOCC2)cc1)Nc1cccc(Cl)c1
EC50 (Troponin, cardiac muscle): > 71.5 µM (inactive)

Structure (SMILES): CC1CCN(S(=O)(=O)c2ccc3nc(-c4ccccn4)cc(C(=O)NCCN(C)Cc4ccccc4)c3c2)CC1
IC50 (Coagulation factor XII): > 50 µM (inactive)
EC50 [3]: > 100 µM (inactive)
EC50 [4]: > 91.2 µM (inactive)
EC50 [5]: > 91.2 µM (inactive)

Structure (SMILES): CC(C)(C)OC(=O)NCCCCCc1cn([C@@H](CO)C(=O)NCCCCCCCCCCC(=O)N2CCN(C(=O)OC(C)(C)C)CC2)nn1
EC50 [3]: > 100 µM (inactive)
AC50 (INS1): 5.45 µM (active)
IC50 [11]: 3.28 µM (active)

Structure (SMILES): CN(C)c1ccc(NC(=O)c2sc(SCC(=O)Nc3ccc(Br)cc3)nc2N)cc1
IC50 (SUMO-activating enzyme): 41.5 µM (active)

Now from value to molecule:

EC50 [6]: 13.8 µM (inactive)
EC50 [7]: 40.7 µM (not active)
EC50 [8]: 10.8 µM (not active)
Structure (SMILES): Cc1ccc(-c2cc(C(=O)NCc3cn(C)nc3C)c3cc(Br)ccc3n2)cc1

EC50 (Troponin, cardiac muscle): > 71.5 µM (inactive)
Structure (SMILES): CCc1ccc(C(=O)NNC(=O)c2cccc(N3C(=O)CCC3=O)c2)cc1

EC50 [6]: 4.06 µM (active)
EC50 [7]: 10.3 µM (not active)
IC50 [9]: 1.23 µM (active)
IC50 [10]: 0.813 µM (active)
EC50 [8]: 3.98 µM (active)
Structure (SMILES): Cc1nc2ccc3nc(NC(=O)c4ccc5c(c4)OCCO5)sc3c2s1

IC50 [12]: > 100 µM (inactive)
IC50 [13]: > 100 µM (not active)
IC50 [14]: > 47.1 µM (inactive)
EC50 [15]: > 53 µM (inactive)
Structure (SMILES): CC1=C(C(=O)NCc2ccccn2)C2(CCC(C)CC2)OC1=O (stereo not drawn)

IC50 [12]: > 100 µM (inactive)
IC50 [13]: > 100 µM (not active)
IC50 [16]: > 66 µM (inactive)
IC50 [17]: > 66 µM (inactive)
Structure (SMILES): Cc1cccc(N(CC(N)=O)C2SC(=O)N(c3ccccc3)C2=O)c1 (stereo not drawn)
